Where no end group is shown, it is not given here.
Columns and labels:
Type in all cases: in vivo
LHRH [1] = assay: Anti-LHRH antibody titres induced by different priming and boosting regimes (Example 2); conditions: Beagles/foxhound dogs, 5 nmoles total peptides (pool p25, p35, p62) with Iscomatrix; for titres of antibodies following the second dose of vaccine: doses week 0, 4, 14, LHRH (2-10) compared with LHRH (6-10)
Description: (§1) Beagles/foxhound dogs were divided into three groups. One group (12 dogs) received three doses of 5 nmoles of total peptides consisting of a pool of peptides p25, p35 and p62 coupled to LHRH (6-10).
(§2) A second group (6 dogs) received three doses of 5 nmoles of total peptides consisting of a pool of peptides p25, p35 and p62 coupled to LHRH (2-10).
(§3) A third group (6 dogs) received three doses of 5 nmoles of total peptides consisting of a pool of peptides p25, p35 and p62 coupled to LHRH (2-10) as the first dose. For the second and third dose the vaccine was the same pool of peptides but coupled to LHRH (6-10).
(§4) The dogs received the three doses of vaccine in week 0, 4 and 14 respectively.
(§5) 1 to 1.5 mg of each of the peptides were weighed out and dissolved in 100 ul of 4 M urea separately. The amounts of the solutions corresponding to 1.7 nmoles of each peptide were mixed and diluted with isotonic saline to the designated dose volume for injection (1 ml per dose). For each dose 150 ug of Iscomatrix•® (CSL, Melbourne, Australia) was also added as adjuvant. The vaccine was given to dogs in the scruff of the neck.

LHRH [2] = assay: Anti-LHRH antibody titres induced by LHRH (6-10) and LHRH (4-10) (Example 3); conditions: Beagles/foxhound dogs; 35 nmoles total peptides (pool p4, p10, p24, p25, p27, p35, p62) with Iscomatrix; week 0, 4, 14; compared with LHRH (6-10)
Procedure: (§6) Beagles/foxhound dogs were divided into two groups. One group (15 dogs) received three doses of 35 nmoles of total peptides consisting of a pool of peptides p4, p10, p24, p25, p27, p35 and p62 coupled to LHRH (6-10).
(§7) A second group (15 dogs) received three doses of 35 nmoles of total peptides consisting of a pool of peptides p4, p10, p24, p25, p27, p35 and p62 coupled to LHRH (4-10).
as §4
as §5, with “5” for “1.7”

LHRH [3] = assay: Testosterone and progesterone levels following vaccination with LHRH (6-10) or LHRH (4-10) (Example 3); conditions: Beagles/foxhound dogs, 35 nmoles total peptides, 7-peptide pool with Iscomatrix; for hormone breakthrough: testosterone and progesterone
Procedure: as §6, §7, §4
as §5, with “5” for “1.7”

LHRH [4] = assay: Testosterone and progesterone levels in vaccinated dogs (Example 2); conditions: Beagles/foxhound dogs; two doses; proportion of animals, compared with the other regimes
Description: as §1, §2, §3, §4, §5

LHRH (2-10)-LHRH (6-10): Regime: p25, p35, p62 pool coupled to LHRH (2-10) as first dose, same pool coupled to LHRH (6-10) for second and third dose (HWSYGLRPG; ends and bridges not checked; also: coupled to T helper peptide pool; UniProt P01148 25-33, looked up, fragment)
titre in the primary antibody response (LHRH [1]; comparison of the three regimes): lowest titres

LHRH (2-10): Vaccine: pool of peptides p25, p35 and p62 coupled to LHRH (2-10), with Iscomatrix adjuvant (HWSYGLRPG; ends and bridges not checked; also: coupled to T helper peptide pool; UniProt P01148 25-33, looked up, fragment)
titres of antibodies following the second dose of vaccine (LHRH [1]): little apparent difference

LHRH (4-10): Vaccine: pool of peptides p4, p10, p24, p25, p27, p35 and p62 coupled to LHRH (4-10) (SYGLRPG), with Iscomatrix adjuvant
titres of antibodies (LHRH [2]): Higher titres
effect on progesterone levels (LHRH [3]; compared with LHRH (6-10)): more striking effect
effect on testosterone levels (LHRH [3]; compared with LHRH (6-10)): more striking effect
hormone breakthrough (LHRH [3]): no animals show hormone breakthrough

LHRH (6-10): Vaccine: T helper epitope peptides coupled to LHRH (6-10), Iscomatrix; pool p25, p35, p62 (Example 2) or seven-peptide pool (Example 3) (GLRPG; ends and bridges not checked; also: coupled to T helper peptide pool; UniProt P01148 29-33, looked up, fragment)
titres of antibodies following the second dose of vaccine (LHRH [1]): little apparent difference
levels of progesterone (LHRH [4]): lower levels
levels of testosterone (LHRH [4]): lower levels
hormone breakthrough (LHRH [3]): hormone breakthrough

From patent US20090105155A1, “TRUNCATED LHRH FORMULATIONS” (priority 2004, published 2009)
